Among the test systems are 786-0 renal; ACHN renal; DU-145 prostate; HOP-62 NSCLC; HT29 colon; IGROV1 ovarian; K-562 leukemia; M14 melanoma; MDA-MB-435; SF-539 CNS; HCT-15 colon; MALME-3M melanoma; SK-MEL-2 melanoma; BT-549 breast.
Assay in all cases: growth of human tumour cells (NCI), 48 h

TGI data for twelve molecules are collected here from PubChem BioAssay (NCI).

SMILES strings stand for the structures. Values joined by “and” are separate entries in the source; they are usually repeats but may differ in a detail not shown here. Identical values can stand only once.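 Cultured in 96-well plates, cells were exposed to test compound for 48 hours across five concentrations. TGI: total growth inhibition.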

Regarding `CC(=O)c1ccc(-c2oc(-c3ccccc3)cc2-c2ccc3c(c2)OCO3)s1`, the TGI in the test with 786-0 renal, in the test with ACHN renal, with DU-145 prostate, in the test on HOP-62 NSCLC, with HT29 colon and with IGROV1 ovarian was over 100 µM each time. Besides, the TGI in the test on K-562 leukemia was over 100 µM; with M14 melanoma, over 100 µM; in the test with MDA-MB-435, 6.08 µM; with SF-539 CNS, over 100 µM.

As for `N#CN=Nc1cc(Cl)c(N=NC#N)cc1Cl`, the TGI in the test on ACHN renal, in the test on HCT-15 colon, with HOP-62 NSCLC, in the test on HT29 colon, in the test with IGROV1 ovarian and in the test with K-562 leukemia was over 100 µM throughout. The TGI with M14 melanoma, in the test on MALME-3M melanoma, with SF-539 CNS and with SK-MEL-2 melanoma was over 100 µM throughout.

Take `O=C1O/C(=C\c2ccc(O)c(Br)c2)C(c2ccc(O)cc2)=C1Cl`: the TGI in the test on 786-0 renal, in the test on ACHN renal, with DU-145 prostate, in the test on HCT-15 colon, in the test on HOP-62 NSCLC and in the test on HT29 colon was over 100 µM in each case. The TGI in the test with IGROV1 ovarian, with K-562 leukemia, in the test on M14 melanoma, with MALME-3M melanoma, in the test on MDA-MB-435 and in the test with SF-539 CNS was over 100 µM throughout. Moreover, the TGI with SK-MEL-2 melanoma is over 100 µM.

As to `CCSC(=Nc1ccccc1)SC`, the TGI in the test with 786-0 renal, with ACHN renal, in the test on HCT-15 colon, in the test with HOP-62 NSCLC, in the test with HT29 colon and with IGROV1 ovarian was over 100 µM throughout. Moreover, the TGI in the test on K-562 leukemia, in the test with M14 melanoma, with MALME-3M melanoma, in the test with SF-539 CNS and with SK-MEL-2 melanoma was over 100 µM throughout.

Consider `Cc1nnc(Nc2ccc(Cl)cc2)o1`, for which the TGI in the test on 786-0 renal, in the test on ACHN renal, with DU-145 prostate, in the test with HCT-15 colon, in the test with HOP-62 NSCLC and with HT29 colon was over 10 µM in each case. In addition, the TGI in the test on IGROV1 ovarian, in the test on K-562 leukemia, with M14 melanoma, in the test with MALME-3M melanoma, with MDA-MB-435 and in the test on SF-539 CNS was over 10 µM in each case. Besides, in the test on SK-MEL-2 melanoma, the TGI was over 10 µM.

Regarding `CC1=CC(C)C(C)N(CCNC(=O)Nc2ccccc2)c2ccccc21` (stereo not given), the TGI is over 100 µM in the test with 786-0 renal; 63.7 µM with ACHN renal; over 100 µM in the test with DU-145 prostate; 72 µM in the test on HCT-15 colon; 63.4 µM in the test on HOP-62 NSCLC; 32.1 µM with HT29 colon. The TGI is over 100 µM in the test with IGROV1 ovarian; over 100 µM in the test on K-562 leukemia; 70 µM in the test with M14 melanoma; 70.2 µM in the test on MALME-3M melanoma; 75.1 µM in the test on MDA-MB-435; 68.3 µM with SF-539 CNS. In the test with SK-MEL-2 melanoma, this molecule gave a TGI of 56.2 µM.

Take `Cc1ccc(S(=O)(=O)Nn2c(-c3ccccc3)c(C#N)c(-c3ccc(Cl)cc3)c(C#N)c2=O)cc1`: the TGI was 30.9 µM in the test with 786-0 renal; over 100 µM in the test with ACHN renal; 61.2 µM with BT-549 breast; over 100 µM in the test on HCT-15 colon; over 100 µM in the test on HOP-62 NSCLC; over 100 µM with K-562 leukemia. For the same molecule, the TGI in the test on M14 melanoma was 41.4 µM; in the test with MDA-MB-435, over 100 µM; with SF-539 CNS, 55.7 µM; with SK-MEL-2 melanoma it was 52.4 µM.

As for `CN(C)CCOc1cc2c(c3ccccc13)-c1ccccc1C2=O`, the TGI was 4.19 µM in the test with HCT-15 colon; 3.95 µM with HOP-62 NSCLC; 3.44 µM in the test on HT29 colon; 7.35 µM with IGROV1 ovarian; 4.7 µM with K-562 leukemia; 5.15 µM with MALME-3M melanoma. Besides, the values for the TGI in the test on SF-539 CNS and in the test on SK-MEL-2 melanoma were 3.27 µM and 3.44 µM, respectively.

For `CC(N)Cc1cccc(C(F)(F)F)c1` (stereo not given), the TGI in the test on 786-0 renal, in the test with ACHN renal, with HCT-15 colon, with HOP-62 NSCLC, with HT29 colon and in the test on IGROV1 ovarian was over 100 µM throughout. For the same molecule, the TGI with K-562 leukemia, in the test on M14 melanoma, in the test on MALME-3M melanoma, in the test with SF-539 CNS and in the test on SK-MEL-2 melanoma was over 100 µM in each case.

`CCC1(O)CC(OC2CC(N(C)C)C(OC3CC(O)C(OC4OC(C)C(=O)C=C4N)C(C)O3)C(C)O2)c2c(O)c3c(c(O)c2C1C(=O)OC)C(=O)c1cccc(O)c1C3=O` (stereo not given): the TGI in the test with 786-0 renal is 0.133 µM and 0.147 µM; in the test on DU-145 prostate, 0.0461 µM; in the test on HCT-15 colon, 1.17 µM; with HOP-62 NSCLC, 0.855 µM; in the test on HT29 colon it was 0.215 µM; in the test on K-562 leukemia it was 0.125 µM and 0.0234 µM. Further, the TGI in the test with M14 melanoma stood at 0.0268 µM; in the test on MALME-3M melanoma, 0.0947 µM; in the test with MDA-MB-435, 0.107 µM; in the test with SF-539 CNS it was 0.236 µM; in the test with SK-MEL-2 melanoma it was 0.0272 µM.

With `CC(=O)O[C@H]1C(=O)[C@@]2(C)C(C(OC(=O)c3ccccc3)[C@]3(O)CC(OC(=O)C(O)C(NC(=O)c4ccccc4)c4ccc(F)cc4)C(C)=C1C3(C)C)[C@]1(OC(C)=O)CO[C@@H]1C[C@@H]2O` (stereo not given in full), the TGI with 786-0 renal is over 10 µM; in the test with ACHN renal it was over 10 µM; in the test with BT-549 breast, over 10 µM; with DU-145 prostate, 0.0104 µM; with HCT-15 colon it was over 10 µM; in the test with HOP-62 NSCLC, over 10 µM. Besides, the TGI in the test on HT29 colon was over 3.4 µM; in the test on IGROV1 ovarian it was over 10 µM; with K-562 leukemia, over 10 µM; in the test on M14 melanoma, over 7.03 µM; with SF-539 CNS, 0.00307 µM; in the test with SK-MEL-2 melanoma, 3.27 µM.

Consider `C#CCCCC(=C)C[C@H](OCc1ccccc1)[C@H]1OC(=O)[C@@H]1C`, for which the TGI with ACHN renal, in the test with BT-549 breast, in the test with HCT-15 colon, in the test on HOP-62 NSCLC, in the test on M14 melanoma and in the test on MDA-MB-435 was over 100 µM throughout. For the same molecule, the TGI in the test on SF-539 CNS was 68.5 µM; in the test on SK-MEL-2 melanoma it was over 100 µM.
